Experimental data from patent US9844536B2, “3-(1H-imidazo[4,5-C]pyridin-2-yl)-1H-pyrazolo[3,4-C]pyridine and therapeutic uses thereof” (Samumed, LLC, priority 2014, dated 2017).

Tests used:
[1] = system: Wnt pathway (Sp5-Luc reporter, SW480 cells); assay: Sp5-Luc reporter gene screening assay for Wnt activity in SW480 colon carcinoma cells; format: cell-based; conditions: Homo sapiens
Source text: The screening assay for Wnt activity is described as follows. Reporter cell lines can be generated by stably transducing cancer cell lines (e.g., colon cancer) or primary cells (e.g., IEC-6 intestinal cells) with a lentiviral construct that includes a Wnt-responsive promoter driving expression of the firefly luciferase gene.
SW480 colon carcinoma cells were transduced with a lentiviral vector expressing luciferase with a human Sp5 promoter consisting of a sequence of eight TCF/LEF binding sites. SW480 cells stably expressing the Sp5-Luc reporter gene and a hygromycin resistance gene were selected by treatment with 150 μg/ml of hygromycin for 7 days. These stably transduced SW480 cells were expanded in cell culture and used for all further screening activities. For Sp5-Luc reporter gene assays, the cells were plated at 10,000 cells/well in 96-well plates with growth medium containing 10% fetal calf serum and incubated overnight at 37° C. and 5% CO2. Each compound was dissolved in DMSO as a 10 mM stock in standard j-vials and used to prepare compound source plates in dose-response format with 3-fold serial dilutions and a 10 mM top concentration. Compound transfer from serially diluted source plates to assay plates containing the cells was accomplished using a pintool (Multimek 96, Beckman equipped with V&P Scientific FP1S50H pins) based liquid handling protocol. This protocol used a slotted pin to transfer 50 nl of compound from a source plate well to an assay plate well containing 50 μl of cells in growth medium. […] Control wells received 50 nl of DMSO treatment for normalization and calculating IC50 values. The treated cells were incubated at 37° C. and 5% CO2 for an additional forty-two hours. Following incubation, the growth medium was removed and 50 μl of BrightGlo luminescence reagent (Promega) was added to each well of the 96-well assay plates. The plates were placed on an orbital shaker for 5 min and then luminescence was quantified on the Victor3 (Perkin Elmer) plate reader. Readings were normalized to DMSO only treated cells, and normalized activities were utilized for IC50 calculations using the dose-response log (inhibitor) vs. response-variable slope (four parameters) nonlinear regression feature available in GraphPad Prism 5.0 or 6.0.

LL29 cells = assay: Inhibition of the fibrotic process (αSMA staining) in TGF-β1 treated primary human fibroblasts from IPF patients; format: cell-based; conditions: Fibroblast, 96 h, TGF-β1 20 ng/mL, 4 days, dose-response 10 μM to 1.87 nM, read-out: Inhibition of fibrosis EC50
Source text: The above synthesized compounds were screened using primary human fibroblasts (derived from IPF patients) treated with TGF-β1 to determine their ability to inhibit the fibrotic process.
Primary human fibroblasts derived from IPF patients (LL29 cells) [^1Xiaoqiu Liu, et. al., “Fibrotic Lung Fibroblasts Show Blunted Inhibition by cAMP Due to Deficient cAMP Response Element-Binding Protein Phosphorylation”, Journal of Pharmacology and Experimental Therapeutics (2005), 315(2), 678-687; ^2Watts, K. L., et. al., “RhoA signaling modulates cyclin D1 expression in human lung fibroblasts; implications for idiopathic pulmonary fibrosis”, Respiratory Research (2006), 7(1), 88] were obtained from American Type Culture Collection (ATCC) and expanded in F12 medium supplemented with 15% Fetal Bovine Serum and Penicillin/Streptomycin.
Each compound was dissolved in DMSO as a 10 mM stock and used to prepare compound source plates. Serial dilution (1:2, 11-point dose-response curves from 10 μM to 1.87 nM) and compound transfer was performed using the ECHO 550 (Labcyte, Sunnyvale, Calif.) into 384-well clear bottom assay plates (Greiner Bio-One) with appropriate DMSO backfill for a final DMSO concentration of 0.1%. LL29 cells were plated at 1,500 cells/well in 80 μl/well F12 medium supplemented with 1% Fetal Bovine Serum. One hour after addition of the cells, TGF-β1 (Peprotech; 20 ng/mL) was added to the plates to induce fibrosis (ref. 1 and 2 above). Wells treated with TGF-β1 and containing DMSO were used as controls. Cells were incubated at 37° C. and 5% CO2 for 4 days. Following incubation for 4 days, SYTOX green nucleic acid stain (Life Technologies [Thermo Fisher Scientific]) was added to the wells at a final concentration of 1 uM and incubated at room temperature for 30 min. Cells were then fixed using 4% formaldehyde (Electron Microscopy Sciences), washed 3 times with PBS followed by blocking and permeabilization using 3% Bovine Serum Albumin (BSA; Sigma) and 0.3% Triton X-100 (Sigma) in PBS. Cells were then stained with antibody specific to α-smooth muscle actin (αSMA; Abcam) (ref. 1 and 2 above) in 3% Bovine Serum Albumin (BSA; Sigma) and 0.3% Triton X-100 (Sigma) in PBS, and incubated overnight at 4° C. Cells were then washed 3 times with PBS, followed by incubation with Alexa Flor-647 conjugated secondary antibody (Life Technologies [Thermo Fisher Scientific]) and DAPI at room temperature for 1 hour. Cells were then washed 3 times with PBS and plates were sealed for imaging. αSMA staining was imaged by excitation at 630 nm and emission at 665 nm and quantified using the Compartmental Analysis program on the CellInsight CX5 (Thermo Scientific). Dead or apoptotic cells were excluded from analysis based on positive SYTOX green staining. % of total cells positive for αSMA were counted in each well and normalized to the average of 11 wells treated with TGF-31 on the same plate using Dotmatics' Studies Software. The normalized averages (fold change over untreated) of 3 replicate wells for each compound concentration were used to create dose-responses curves and EC50 values were calculated using non-linear regression curve fit in the Dotmatics' Studies Software. The EC50 values are reported.

Structure (SMILES)	IC50 [1] [nM]	EC50 (LL29 cells) [nM]
CS(=O)(=O)NCc1cc(F)cc(-c2nccc3[nH]c(-c4n[nH]c5cnc(-c6cncc(NC(=O)c7ccccc7)c6)cc45)nc23)c1 [Compound 427, N-(5-(3-(4-(3-Fluoro-5-(methylsulfonamidomethyl)phenyl)-1H-imidazo[4,5-c]pyridin-2-yl)-1H-pyrazolo[3,4-c]pyridin-5-yl)pyridin-3-yl)benzamide]	> 10000	≥ 9990
Cc1ccc(-c2nccc3[nH]c(-c4n[nH]c5cnc(-c6cncc(NC(=O)C7CCCC7)c6)cc45)nc23)s1 [Compound 385, N-(5-(3-(4-(5-Methylthiophen-2-yl)-1H-imidazo[4,5-c]pyridin-2-yl)-1H-pyrazolo[3,4-c]pyridin-5-yl)pyridin-3-yl)cyclopentanecarboxamide]	166	≤ 9
O=C(Nc1cncc(-c2cc3c(-c4nc5c(N6CCCCC6)nccc5[nH]4)n[nH]c3cn2)c1)C1CC1 [Compound 175, N-(5-(3-(4-(Piperidin-1-yl)-1H-imidazo[4,5-c]pyridin-2-yl)-1H-pyrazolo[3,4-c]pyridin-5-yl)pyridin-3-yl)cyclopropanecarboxamide]	636	≤ 9
Cc1ccc(-c2nccc3[nH]c(-c4n[nH]c5cnc(-c6cncc(CN7CCCCC7)c6)cc45)nc23)s1 [Compound 379, 3-(4-(5-Methylthiophen-2-yl)-1H-imidazo[4,5-c]pyridin-2-yl)-5-(5-(piperidin-1-ylmethyl)pyridin-3-yl)-1H-pyrazolo[3,4-c]pyridine]	73.2	≤ 9
Fc1cccc(-c2nccc3[nH]c(-c4n[nH]c5cnc(C6=CCNCC6)cc45)nc23)c1 [Compound 938, 3-(4-(3-Fluorophenyl)-1H-imidazo[4,5-c]pyridin-2-yl)-5-(1,2,3,6-tetrahydropyridin-4-yl)-1H-pyrazolo[3,4-c]pyridine]	125	198
CCNCc1cncc(-c2cc3c(-c4nc5c(-c6ccoc6)nccc5[nH]4)n[nH]c3cn2)c1 [Compound 292, N-((5-(3-(4-(Furan-3-yl)-1H-imidazo[4,5-c]pyridin-2-yl)-1H-pyrazolo[3,4-c]pyridin-5-yl)pyridin-3-yl)methyl)ethanamine]	80.4	≤ 9
O=C(Nc1cncc(-c2cc3c(-c4nc5c(-c6ccsc6)nccc5[nH]4)n[nH]c3cn2)c1)c1ccccc1 [Compound 271, N-(5-(3-(4-(Thiophen-3-yl)-1H-imidazo[4,5-c]pyridin-2-yl)-1H-pyrazolo[3,4-c]pyridin-5-yl)pyridin-3-yl)benzamide]	189	≤ 9
CN(C)Cc1cncc(-c2cc3c(-c4nc5c(-c6cccs6)nccc5[nH]4)n[nH]c3cn2)c1 [Compound 325, N,N-Dimethyl-1-(5-(3-(4-(thiophen-2-yl)-1H-imidazo[4,5-c]pyridin-2-yl)-1H-pyrazolo[3,4-c]pyridin-5-yl)pyridin-3-yl)methanamine]	> 10000	≤ 9
CC(=O)c1ccc(-c2nccc3[nH]c(-c4n[nH]c5cnc(-c6cncc(NC(=O)C7CCCCC7)c6)cc45)nc23)s1 [Compound 412, N-(5-(3-(4-(5-Acetylthiophen-2-yl)-1H-imidazo[4,5-c]pyridin-2-yl)-1H-pyrazolo[3,4-c]pyridin-5-yl)pyridin-3-yl)cyclohexanecarboxamide]	> 10000	≤ 9
Cc1ccncc1-c1cc2c(-c3nc4c(-c5ccncc5)nccc4[nH]3)n[nH]c2cn1 [Compound 109, 5-(4-Methylpyridin-3-yl)-3-(4-(pyridin-4-yl)-1H-imidazo[4,5-c]pyridin-2-yl)-1H-pyrazolo[3,4-c]pyridine]	114	≥ 9990
O=C(Cc1ccccc1)Nc1cncc(-c2cc3c(-c4nc5cnccc5[nH]4)n[nH]c3cn2)c1 [Compound 244, N-(5-(3-(1H-Imidazo[4,5-c]pyridin-2-yl)-1H-pyrazolo[3,4-c]pyridin-5-yl)pyridin-3-yl)-2-phenylacetamide]	1300	≥ 9990
c1ccc(-c2nccc3[nH]c(-c4n[nH]c5cnc(-c6cncc(CNCC7CCCC7)c6)cc45)nc23)nc1 [Compound 154, 1-Cyclopentyl-N-((5-(3-(4-(pyridin-2-yl)-1H-imidazo[4,5-c]pyridin-2-yl)-1H-pyrazolo[3,4-c]pyridin-5-yl)pyridin-3-yl)methyl)methanamine]	219	140
O=C(CC1CCNCC1)Nc1cncc(-c2cc3c(-c4nc5c(-c6cccc(F)c6)nccc5[nH]4)n[nH]c3cn2)c1 [Compound 945, N-(5-(3-(4-(3-Fluorophenyl)-1H-imidazo[4,5-c]pyridin-2-yl)-1H-pyrazolo [3,4-c]pyridin-5-yl)pyridin-3-yl)-2-(piperidin-4-yl)acetamide]	> 10000	60

These reach a lower IC50 [1]. Values come first.

IC50 [1] [nM]	Structure (SMILES)	EC50 (LL29 cells) [nM]
20	Fc1cccc(-c2nccc3[nH]c(-c4n[nH]c5cnc(-c6cnccn6)cc45)nc23)c1 [Compound 954, 3-(4-(3-Fluorophenyl)-1H-imidazo[4,5-c]pyridin-2-yl)-5-(pyrazin-2-yl)-1H-pyrazolo[3,4-c]pyridine]	≥ 9990
42.8	O=C(Nc1cncc(-c2cc3c(-c4nc5c(-c6ccsc6)nccc5[nH]4)n[nH]c3cn2)c1)C1CCC1 [Compound 280, N-(5-(3-(4-(Thiophen-3-yl)-1H-imidazo[4,5-c]pyridin-2-yl)-1H-pyrazolo[3,4-c]pyridin-5-yl)pyridin-3-yl)cyclobutanecarboxamide]	≥ 9990
28	Oc1cncc(-c2cc3c(-c4nc5c(-c6cccc(F)c6)nccc5[nH]4)n[nH]c3cn2)c1 [Compound 949, 5-(3-(4-(3-Fluorophenyl)-1H-imidazo[4,5-c]pyridin-2-yl)-1H-pyrazolo[3,4-c]pyridin-5-yl)pyridin-3-ol]	≥ 9990
15.2	FC1(F)CCN(Cc2cncc(-c3cc4c(-c5nc6c(-c7cccs7)nccc6[nH]5)n[nH]c4cn3)c2)C1 [Compound 337, 5-(5-((3,3-Difluoropyrrolidin-1-yl)methyl)pyridin-3-yl)-3-(4-(thiophen-2-yl)-1H-imidazo[4,5-c]pyridin-2-yl)-1H-pyrazolo[3,4-c]pyridine]	≤ 9
17.3	CCCC(=O)Nc1cncc(-c2cc3c(-c4nc5c(-c6cccs6)nccc5[nH]4)n[nH]c3cn2)c1 [Compound 329, N-(5-(3-(4-(Thiophen-2-yl)-1H-imidazo[4,5-c]pyridin-2-yl)-1H-pyrazolo[3,4-c]pyridin-5-yl)pyridin-3-yl)butyramide]	≥ 9990
